What all share (assay type): functional, cell-based
The target in test [1] is T1, Taste receptor type 2 member 10 (Homo sapiens) (UniProt Q9NYW0).
T1 sequence (whole entry): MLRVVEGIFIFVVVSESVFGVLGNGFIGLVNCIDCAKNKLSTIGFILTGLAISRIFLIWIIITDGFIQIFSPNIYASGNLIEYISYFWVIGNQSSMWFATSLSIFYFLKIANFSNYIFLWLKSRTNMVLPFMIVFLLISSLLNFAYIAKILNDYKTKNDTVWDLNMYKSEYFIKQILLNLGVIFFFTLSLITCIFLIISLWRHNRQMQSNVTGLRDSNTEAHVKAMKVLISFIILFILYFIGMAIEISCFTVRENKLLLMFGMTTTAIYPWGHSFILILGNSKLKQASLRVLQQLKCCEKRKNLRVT
In words: Agonist activity at recombinant human N-terminal rat ST3 receptor-fused TAS2R10 expressed in HEK293T cells co-expressing Galpha16gust44 assessed as effect on intracellular calcium level at 100 uM by FLIPR assay. For orientation: Calcium assays in cells follow changes in intracellular calcium, usually with a dye or a luminescent sensor.

In test [2] the target is T2, Taste receptor type 2 member 14 (Homo sapiens) (UniProt Q9NYV8).
T2 sequence (whole entry): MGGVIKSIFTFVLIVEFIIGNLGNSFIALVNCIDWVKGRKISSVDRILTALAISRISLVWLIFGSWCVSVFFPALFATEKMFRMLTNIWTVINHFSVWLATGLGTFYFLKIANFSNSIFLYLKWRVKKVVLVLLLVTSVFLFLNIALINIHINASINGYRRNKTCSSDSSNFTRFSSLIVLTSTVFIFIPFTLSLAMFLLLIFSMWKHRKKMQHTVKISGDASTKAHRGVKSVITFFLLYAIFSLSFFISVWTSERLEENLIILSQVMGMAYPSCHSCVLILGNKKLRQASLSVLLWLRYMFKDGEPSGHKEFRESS
In words: Agonist activity at recombinant human N-terminal rat ST3 receptor-fused TAS2R14 expressed in HEK293T cells co-expressing Galpha16gust44 assessed as effect on intracellular calcium level at 100 uM by FLIPR assay.

Test [3] has as its target T3, Taste receptor type 2 member 4 (Homo sapiens) (UniProt Q9NYW5).
T3 sequence (whole entry): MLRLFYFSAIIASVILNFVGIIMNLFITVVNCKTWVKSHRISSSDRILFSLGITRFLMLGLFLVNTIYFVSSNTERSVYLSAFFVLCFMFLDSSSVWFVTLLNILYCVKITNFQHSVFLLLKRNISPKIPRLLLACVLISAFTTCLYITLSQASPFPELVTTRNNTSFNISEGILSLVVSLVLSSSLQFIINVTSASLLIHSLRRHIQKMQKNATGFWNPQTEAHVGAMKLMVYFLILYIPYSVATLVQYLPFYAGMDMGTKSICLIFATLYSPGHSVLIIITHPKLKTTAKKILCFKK
Kind of test: Activity at recombinant human N-terminal rat ST3 receptor-fused TAS2R4 expressed in HEK293T cells co-expressing Galpha16gust44 assessed as effect on colchicine-induced intracellular calcium level at 100 uM by FLIPR assay.

The target of test [4] is T1, Taste receptor type 2 member 10 (Homo sapiens). Kind of test: Activity at recombinant human N-terminal rat ST3 receptor-fused TAS2R10 expressed in HEK293T cells co-expressing Galpha16gust44 assessed as effect on strychnine-induced intracellular calcium level at 100 uM by FLIPR assay.
Test [5] deals with T4, Taste receptor type 2 member 13 (Homo sapiens) (UniProt Q9NYV9).
T4 sequence (whole entry): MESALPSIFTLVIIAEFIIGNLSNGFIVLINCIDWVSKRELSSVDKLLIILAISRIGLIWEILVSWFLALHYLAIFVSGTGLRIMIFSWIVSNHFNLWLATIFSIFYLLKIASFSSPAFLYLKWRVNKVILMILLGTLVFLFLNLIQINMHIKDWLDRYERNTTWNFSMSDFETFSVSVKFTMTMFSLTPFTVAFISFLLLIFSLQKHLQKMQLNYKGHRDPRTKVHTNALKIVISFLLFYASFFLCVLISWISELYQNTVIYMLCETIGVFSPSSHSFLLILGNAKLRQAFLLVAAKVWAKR
In words: Activity at recombinant human N-terminal rat ST3 receptor-fused TAS2R13 expressed in HEK293T cells co-expressing Galpha16gust44 assessed as effect on denatonium benzoate-induced intracellular calcium level at 100 uM by FLIPR assay.

Test [6] concerns the target T2, Taste receptor type 2 member 14 (Homo sapiens). In words: Activity at recombinant human N-terminal rat ST3 receptor-fused TAS2R14 expressed in HEK293T cells co-expressing Galpha16gust44 assessed as effect on aristolochic acids-induced intracellular calcium level at 100 uM by FLIPR assay.
Test [7] concerns the target T5, Taste receptor type 2 member 16 (Homo sapiens) (UniProt Q9NYV7).
T5 sequence (whole entry): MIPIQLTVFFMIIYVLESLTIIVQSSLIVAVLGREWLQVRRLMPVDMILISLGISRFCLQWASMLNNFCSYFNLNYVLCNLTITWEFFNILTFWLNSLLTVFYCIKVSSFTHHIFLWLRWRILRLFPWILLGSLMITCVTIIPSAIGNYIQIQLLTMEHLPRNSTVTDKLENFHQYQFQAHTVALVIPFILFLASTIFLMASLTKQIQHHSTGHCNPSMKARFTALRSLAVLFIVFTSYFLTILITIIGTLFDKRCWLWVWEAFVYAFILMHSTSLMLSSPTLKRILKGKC
In words: Activity at recombinant human N-terminal rat ST3 receptor-fused TAS2R16 expressed in HEK293T cells co-expressing Galpha16gust44 assessed as effect on D-salicin-induced intracellular calcium level at 100 uM by FLIPR assay.

Test [8] addresses T6, Taste receptor type 2 member 46 (Homo sapiens, UniProt P59540).
T6 sequence (P59540 whole entry): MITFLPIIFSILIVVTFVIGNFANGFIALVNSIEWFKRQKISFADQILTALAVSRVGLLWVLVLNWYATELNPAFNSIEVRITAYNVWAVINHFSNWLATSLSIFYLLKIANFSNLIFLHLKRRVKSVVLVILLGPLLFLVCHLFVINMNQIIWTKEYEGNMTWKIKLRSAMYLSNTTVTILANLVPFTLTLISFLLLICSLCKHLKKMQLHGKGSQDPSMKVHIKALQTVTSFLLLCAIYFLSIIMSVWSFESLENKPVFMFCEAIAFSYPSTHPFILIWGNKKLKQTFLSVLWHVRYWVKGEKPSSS
Kind of test: Antagonist activity at recombinant human N-terminal rat ST3 receptor-fused TAS2R46 expressed in HEK293T cells co-expressing Galpha16gust44 assessed as inhibition of 3 uM strychnine-induced intracellular calcium level 100 uM by FLIPR assay.

The source made the active and inactive calls. No cut-off for these calls is given here.

For orientation: IC50 means the concentration needed to halve the response being measured. As to `C/C1=C\C[C@H](O)/C(C)=C/[C@H]2OC(=O)[C@@H](C)C2CC1` (stereo partly specified), the outcome in test [1] and in test [2] was Active. Further, the outcome in test [3], in test [4], in test [5], in test [6] and in test [7] was inactive. The IC50 in test [8] was found to be 15.3 µM.

Turning to `C/C1=C\C[C@H](O)[C@@H](C)C[C@H]2OC(=O)[C@@H](C)C2CC1` (stereo partly specified), the result in test [1] and in test [2] was Active. Besides, the result in test [3], in test [4], in test [5], in test [6] and in test [7] was inactive. In addition, the IC50 in test [8] stood at 84.9 µM.

The record behind these values is ChEMBL document CHEMBL4421717, “Antagonists and agonists of bitter taste receptors and uses thereof” (2012).
